These results are taken from PMC11207729, “Unveiling Anticancer Potential of COX-2 and 5-LOX Inhibitors: Cytotoxicity, Radiosensitization Potential and Antimigratory Activity against Colorectal and Pancreatic Carcinoma” (Pharmaceutics, 2024).

Each structure is given as a SMILES string. Values joined by “and” are separate entries in the source; they are usually repeats but may differ in a detail not shown here. Equal entries are not always repeated. “Also recorded” adds a separate entry of the source.

For data set [1], the system named is HT-29 cells. In words: MTT cytotoxicity assay, HT-29. It is filed as cell-based, human. The settings on record: for IC50: Homo sapiens, HT-29, MTT, 72 h after treatment, mean ± SEM; for Selectivity index (IC50 normal cell line/IC50 cancer cell lines), HT-29: MRC-5 / HT-29, in brackets. As for the experimental part:
(§1) SW620 cells were cultured in Dulbecco’s Modified Eagle’s medium (DMEM, Sigma-Aldrich Chemie GmbH, Steinheim, Germany) and supplemented in the same manner as the previously mentioned cell lines. Cells were grown in cell culture flasks T25 (Sarstedt AG & Co., Nümbrecht, Germany) at appropriate cell densities in the culture medium prior to exposure to treatments. Stock solutions of each compound, prepared in DMSO, were diluted in the culture medium to obtain the appropriate final concentrations.
(§2) The viability of the control and cells treated with the tested compounds was determined by MTT assay. Cells were seeded in 96-well plates at a density of 2000 cells/well, allowed to attach overnight, and then treated with rising concentrations of testing compounds. The ability of viable cells to reduce 3-(4,5-dimethylthiazol-2-yl)-2,5-diphenyltetrazolium bromide into blue-purple formazan crystals, was measured 72 h after the treatments. Namely, l mg/mL of MTT reagent (Sigma-Aldrich Chemie GmbH, Steinheim, Germany) was added to each well and incubated for an additional 4 h. Finally, upon removal of the medium containing MTT, 200 µL of DMSO was added to each well.
(In general: Tetrazolium assays rely on reduction of a dye to a coloured formazan, in cell work by metabolically active cells.)

The subject of data set [2] is BxPC-3 cells. As to the kind of experiment: MTT cytotoxicity assay, BxPC-3. It is filed as cell-based, human. The settings on record: for IC50: Homo sapiens, BXPC-3, 72 h, MTT, 72 h after treatment, mean ± SEM; for Selectivity index (IC50 normal cell line/IC50 cancer cell lines), BxPC-3: MRC-5 / BxPC-3, in brackets. As for the experimental part: as §1, §2
Data set [3] relates to HCT 116 cells. In words: MTT cytotoxicity assay, HCT 116. It is filed as cell-based, human. The settings on record: for IC50: Homo sapiens, HCT-116, MTT, 72 h after treatment, mean ± SEM; for Selectivity index (IC50 normal cell line/IC50 cancer cell lines), HCT 116: MRC-5 / HCT 116, in brackets. As for the experimental part: as §1, §2
For data set [4], the system named is MRC-5 cells. In words: MTT cytotoxicity assay, MRC-5 normal fibroblasts. It is filed as cell-based, human. The settings on record: for IC50: Homo sapiens, MRC5, 72 h, MTT, 72 h after treatment, mean ± SEM, healthy cell line.
In data set [5] the test system is HT-29 cells. As to the kind of experiment: SRB assay, compound plus γ-radiation, HT-29. It is filed as cell-based, human. Conditions: IC50 concentration 24 h before 2 Gy γ-radiation, SRB 72 h after irradiation. The procedure:
(§3) In the experiments involving irradiation, cells were irradiated at room temperature, in the vertical position with the cell monolayer facing ^60Co γ-rays (CIRUS-Cis Biointernational). The irradiation of samples was performed in Vinča Institute of Nuclear Sciences, Belgrade, Serbia. In all experiments, a clinically relevant radiation dose of 2 Gy with the dose rate of ~1 Gy/min was applied.
(§4) For the evaluation of cell viability after treatments with radiation as well as after combined treatments, a sulforhodamine B (SRB) protein binding assay was used. This assay is based on the staining of cellular proteins. Maintaining conditions were identical to that of MTT assay. The cells were pretreated with IC50 concentrations of tested compounds for 24 h before irradiations. Following the 72 h post-irradiation incubation time under standard conditions (5% CO2, 37 °C) cells were fixed by protein precipitation with 10% trichloroacetic acid (TCA) at 4 °C for 1 h. Plates were rinsed with distillated water and stained with 0.4% SRB (Sigma-Aldrich Chemie GmbH, Steinheim, Germany) in 1% acetic acid, for 15 min at room temperature. Excess stain was removed by washing the wells in 1% acetic acid. After being rinsed, microwell plates were air dried until no staining moisture was visible. Bound dye was dissolved in 10 mM unbuffered Tris base (pH 10.5) for 5 min on a gyratory shaker. The absorbance of each well was measured using a microplate reader (Wallac VICTOR2 1420 Multilabel counter, PerkinElmer, Turku, Finland) at a test wavelength of 550 nm.
(Sulforhodamine B stains cellular protein and so reports cell mass.)

The test system of data set [6] is 5-LOX. On the set-up: method as in PMID 37111306. The settings on record: cited from earlier work.
The nature of data set [7]: in vivo. Conditions: in vivo. The procedure:
(§5) Wild-type (AB) zebrafish embryos, kindly provided by Dr. Ana Cvejić (Wellcome Trust Sanger Institute, Cambridge, UK), were raised to adult stage in a temperature- and light-controlled zebrafish facility at 28 °C and a standard 14:10 h light–dark photoperiod. Fish were fed with commercial dry food (SDS200 and SDS300 granular food; Special Diet Services, Essex; UK and TetraMinTM flakes; Tetra Melle, Germany) twice a day, and with Artemia nauplii daily.
(§6) Embryos produced by pairwise mating were washed to remove debris, distributed at 10 per well into 24-well plates containing 1 mL of E3 medium (5 mM NaCl, 0.17 mM KCl, 0.33 mM CaCl2 and 0.33 mM MgSO4 in distilled water) and maintained at 28 °C. […] Dead embryos were recorded and discarded every 24 h. […] Experiments were performed in triplicate using 30 embryos for each concentration. At 120 hpf, embryos were anesthetized by the addition of 0.1% (w/v) tricaine solution (Sigma-Aldrich, St. Louis, MO, USA), photographed, and killed by freezing at −20 °C for ≥24 h.

Data set [8] concerns BxPC-3 cells. As to the kind of experiment: SRB assay, compound plus γ-radiation, BxPC-3. It counts as cell-based, human. The settings on record: IC50 concentration 24 h before 2 Gy γ-radiation, SRB 72 h after irradiation. The procedure:
as §3
as §4, with “After being rinsed, microwell plates were air dried until no staining moisture was visible. Bound dye was dissolved in 10 mM unbuffered Tris base (pH 10.5) for 5 min on a gyratory shaker.” left out

For data set [9], the system named is SW620 cells. As to the kind of experiment: Wound-healing assay. It counts as cell-based, human. Conditions: 25 μM. As for the experimental part: The migratory potential of SW620 cells (human colon carcinoma cell line) was evaluated by a wound-healing assay. Cells were seeded in density of 300,000 cells per well in 24-well tissue culture microplates and grown for 24 h in DMEM medium supplemented with 10% FBS, penicillin/streptomycin and L-glutamine at 37 °C in a humidified atmosphere containing 5% CO2. Upon reaching confluence, a uniform wound was scratched into a monolayer of each well with a sterile plastic 200 μL micropipette tip. After wounding, the medium was replaced and cells were further treated with 25 μM of compounds 1, 2, 3, and 5 for 24 h and 48 h. Wound closure was monitored by imaging cells at 4× magnification using the ImageXpress® Pico Automated Cell Imaging System (Molecular Devices®, San Jose, CA, USA) immediately (T0), and at 24 h (T24) and 48 h (T48) after wounding. The captured images were analyzed by ImageJ software v. 1.52p (U.S. National Institutes of Health, Bethesda, MD, USA) to measure the degree of closure of the wounded area. Independent experiments were performed three times.

Data set [10] deals with zebrafish (Danio rerio) embryos. As to the kind of experiment: in vivo. The settings on record: embryos exposed for five days, up to 50 µM; cardiotoxicity, hepatotoxicity, malformations. As for the experimental part:
as §5, §6

Data set [11] relates to SW620 cells. In words: Cytotoxicity in SW620 cells after 24 h treatment (Table S2). It counts as cell-based. The settings on record: Homo sapiens, SW-620, read-out: IC50 (µM) following 24h treatment in SW620 cells.
Data set [12] has as its system HCT 116 cells. As to the kind of experiment: SRB assay, compound plus γ-radiation, HCT 116. It is filed as cell-based, human. The settings on record: IC50 concentration 24 h before 2 Gy γ-radiation, SRB 72 h after irradiation. As for the experimental part: as §4, with “In the experiments involving irradiation, cells were irradiated at room temperature, in the vertical position with the cell monolayer facing ^60Co γ-rays (CIRUS-Cis Biointernational). The irradiation of samples was performed in Vinča Institute of Nuclear Sciences, Belgrade, Serbia. In all experiments, a clinically relevant radiation dose of 2 Gy with the dose rate of ~1 Gy/min was applied. For” for “For”, “After being rinsed, microwell plates were air dried until no staining moisture was visible. Bound dye was dissolved in 10 mM unbuffered Tris base (pH 10.5) for 5 min on a gyratory shaker.” left out

For data set [13], the system named is COX-2. On the set-up: method as in PMID 37111306. Conditions: cited from earlier work.

Usually IC50 stands for the midpoint of a concentration-inhibition curve. `C#CCNC(=O)c1cc(C(C)(C)C)c(O)c(C(C)(C)C)c1` [Compound 7]: the IC50 in [1] was over 100 µM; in data set [2], 29.2 ± 1.56 µM; in data set [3] it was 30.2 ± 5.07 µM; in [4] it was over 100 µM; in data set [6] it was 12.6 µM. In addition, the “Selectivity index (IC50 normal cell line/IC50 cancer cell lines), BxPC-3” value (from here on “Selectivity index … BxPC-3”) in data set [2] was over 3.42. In addition, the “Selectivity index (IC50 normal cell line/IC50 cancer cell lines), HCT 116” value (“Selectivity index … HCT 116” below) in data set [3] is over 3.31. For the same compound, the “cell proliferation, combined treatment versus radiation alone, HT-29” value in data set [5] is “significantly inactivated HT-29 cells”.

A word on the LC50: it is the concentration lethal to half of the exposed cells or organisms. Regarding `CC(c1cc2ccccc2s1)N(O)C(N)=O` (centres unmarked) [Zileuton, reference compound], in [1], the IC50 amounted to 78.5 ± 2.28 µM and the “Selectivity index (IC50 normal cell line/IC50 cancer cell lines), HT-29” value (“Selectivity index … HT-29” below) was found to be 1.22. Moreover, in [2], the IC50 was determined as 74.9 ± 4.1 µM and the “Selectivity index … BxPC-3” value is reported as 1.28. Besides, in [3], the IC50 is 44.9 ± 3.48 µM and the “Selectivity index … HCT 116” value was found to be 2.13. Moreover, the IC50 in data set [4] is 95.74 ± 0.94 µM. The “Selectivity index, MRC-5” value in data set [4] (MRC-5 / MRC-5 (reference value), in brackets) is given as 1. In data set [7], the LC50 came to 4.41 µM.

In the case of `O=C(NO)NCc1ccccc1Nc1c(Cl)cccc1Cl` [Compound 3], the IC50 in data set [1] is 64.6 ± 3.41 µM; in data set [2] it was 34.3 ± 1.79 µM; in data set [3], 40.8 ± 1.95 µM; in [4], over 100 µM; in [11], 169 ± 5.7 µM. Also, the “Selectivity index … HT-29” value in data set [1] is listed as over 1.55. Moreover, the “Selectivity index … BxPC-3” value in data set [2] is over 2.91. Further, the “Selectivity index … HCT 116” value in data set [3] is over 2.45. Moreover, the “cell proliferation, combined treatment versus radiation alone, BxPC-3” value in data set [8] is “significant change in cell inactivation”. Moreover, the “Relative Wound Closure (%) 24 h” value in data set [9] (SW620, 24 h relative to T0, mean ± SEM, control 17.87 ± 3.48) was 3.86% and 3.86 ± 0.19%. In addition, the “Relative Wound Closure (%) 48 h” value in [9] (SW620, 48 h relative to T0, mean ± SEM, control 24.51 ± 1.39) is 7.68% and 7.68 ± 2.99%. Also, in [10], the “toxic response / adverse side effects in embryos” value is given as “did not elicit a toxic response; also recorded: no adverse side effects”. Also, the LC50 in [7] is over 50 µM. Besides, the “cell proliferation, combined treatment versus radiation alone, HCT 116” value in [12] was “lower in comparison to cells that were only irradiated”.

With `C=CCNC(=O)c1cc(C(C)(C)C)c(O)c(C(C)(C)C)c1` [Compound 6], the IC50 in [1] was 24.8 ± 5.4 µM; in data set [2], 8.63 ± 0.77 µM; in data set [3], 23 ± 3.27 µM; in [4], over 100 µM; in data set [13], 6.89 µM. For the same compound, the “Selectivity index … HT-29” value in data set [1] is given as over 4.04. Besides, in data set [2], the “Selectivity index … BxPC-3” value is over 11.59. Besides, in data set [3], the “Selectivity index … HCT 116” value is over 4.35. The “cell proliferation, combined treatment versus radiation alone, BxPC-3” value in data set [8] is listed as “statistically significant change with respect to radiation”. Besides, the “cell proliferation, combined treatment versus radiation alone, HT-29” value in data set [5] is recorded as “statistically significant change with respect to radiation”.
